According to US20190209581A1, “DOSAGE REGIMEN FOR TREATMENT OF SOLID TUMORS” (Eli Lilly and Company, priority 2016, published 2019):

Columns and labels:
[1] = Toxicokinetics in Beagle dogs; type: in vivo, dog; conditions: for Cmax: beagle, po
Experimental: A study is carried out to assess the Toxicity and Toxicokinetics of 4,4,4-trifluoro-N-[(1S)-2-[[(7S)-5-(2-hydroxyethyl)-6-oxo-7H-pyrido[2,3-d][3]benzazepin-7-yl]amino]-1-methyl-2-oxo-ethyl]butanamide in dogs given oral gavage doses of 0 or 1.3 mg/kg once daily for 6 days or 0.3 or 3 mg/kg every other day for a total of 3 doses. 4,4,4-Trifluoro-N-[(1S)-2-[[(7S)-5-(2-hydroxyethyl)-6-oxo-7H-pyrido[2,3-d][3]benzazepin-7-yl]amino]-1-methyl-2-oxo-ethyl]butanamide is combined with a vehicle comprising 1% carboxymethylcellulose sodium, 0.25% polysorbate 80 and 0.05% Dow Corning® Antifoam 1510-US in purified water. Dogs (beagle), Covance Research Products, 1 animal/sex/group are fed daily (soon after dosing) and are fasted overnight prior to scheduled chemistry blood collections and necropsy. The test compound is administered by oral gavage in a volume of 2 mL/kg body weight. The duration of the study for all groups is 6 days.
Groups 01 and 04, Blood is collected at the following times relative to dosing on Day 1: 0.5, 1, 2, 4, 8, and 24 hours postdose.
Groups 02 and 04: Blood is collected at the following times relative to dosing on Days 2 and 6: 0 (predose; Day 6 only), 0.5, 1, 2, 4, 8, 24, 30, and 48 hours postdose.

[2] = system: HCT 116 human colorectal cell line; test: Tumor growth inhibition, HCT 116 xenograft; type: in vivo; conditions: HCT 116 in mice, oral 8 mg/kg, (Mon, Wed, Fri)x4; p <0.05 to <0.01
Experimental: (§1) To evaluate in vivo efficacy and effect of 4,4,4-Trifluoro-N-[(1S)-2-[[(7S)-5-(2-hydroxyethyl)-6-oxo-7H-pyrido[2,3-d][3]benzazepin-7-yl]amino]-1-methyl-2-oxo-ethyl]butanamide on inhibition of Notch processing pharmacodynamics (PD), several cell lines- and patient-derived xenograft models are used. A2780 is a human ovarian cell line (Sigma-Aldrich, No. 93112519); SW480 is a human colorectal cell line (ATCC No. CCL-228); HCT 116 is a human colorectal cell line (ATCC No. CCL-247); U-87 MG is a human glioblastoma cell line (ATCC No. HTB-14); A375 is a human malignant melanoma cell line (ATCC No. CRL-1619); K-562 is a human chronic myelogenous leukemia (CML) cell line characterized by the presence of a fusion transcript comprised of the Bcr and Abl1 genes (ATCC No. CCL-243); Jurkat; HEL 92.1.7 is a human erythroleukemia cell line (ATCC No. TIB-180). […] Tumor growth and body weight are monitored over time to evaluate efficacy and signs of toxicity. Bidimensional measurements of tumors are performed twice a week and tumor volumes are calculated based on the following formula: (Tumor Volume)=[(L)×(W2)×(Π/6)] where L is mid-axis length and W is mid-axis width. […] The log volume data are analyzed with a two-way repeated measures analysis of variance by time and treatment using the MIXED™ procedures in SAS™ software (version 8.2). […]

[3] = system: U-87 MG human glioblastoma cell line; test: Tumor growth inhibition, U-87 MG xenograft; type: in vivo; conditions: U-87 MG in mice, oral 8 mg/kg, (Mon, Wed, Fri)x4; p <0.0001
Experimental: as §1

[4] = system: A375 human malignant melanoma cell line; test: Tumor growth inhibition, A-375 xenograft; type: in vivo; conditions: A-375 in mice, oral 8 mg/kg, (Mon, Wed, Fri)x4; p NS
Experimental: as §1

[5] = system: human colon carcinoma (EL 1986); test: Tumor growth inhibition, patient-derived tumor model EL1986; type: in vivo; conditions: EL1986 in mice, oral 8 mg/kg, (Mon, Wed, Fri)x5; p <0.0001
Experimental: as §1

[6] = Beagle dog, single oral dose 1.3 mg/kg, Subject 0007_M
[7] = Beagle dog, single oral dose 1.3 mg/kg, Subject 0008_F
[8] = Beagle dogs, multiple oral doses (3 doses/week), 0.3 mpk, mean n = 2
[9] = Beagle dogs, multiple oral doses (3 doses/week), 3 mpk, mean n = 2
[10] = Beagle dogs, single oral dose 1.3 mg/kg, Mean, n = 2
[11] = Beagle dogs, single oral dose, 0.3 mpk, mean n = 2
[12] = Beagle dogs, single oral dose, 3 mpk, mean n = 2

Structure (SMILES): C[C@H](NC(=O)CCC(F)(F)F)C(=O)N[C@@H]1C(=O)N(CCO)c2ncccc2-c2ccccc21 [Compound 1, 4,4,4-trifluoro-N-[(1S)-2-[[(7S)-5-(2-hydroxyethyl)-6-oxo-7H-pyrido[2,3-d][3]benzazepin-7-yl]amino]-1-methyl-2-oxo-ethyl]butanamide]
- AUC [1, 6]: 4030 ng·h/mL
- Tmax [1, 6]: 30 min
- AUC [1, 7]: 4500 ng·h/mL
- Tmax [1, 7]: 30 min
- AUC [1, 8]: 3070 ng·h/mL
- Tmax [1, 8]: 45 min
- AUC [1, 9]: 14400 ng·h/mL
- Tmax [1, 9]: 45 min
- AUC [1, 10]: 4270 ng·h/mL
- Tmax [1, 10]: 30 min
- AUC [1, 11]: 1290 ng·h/mL
- Tmax [1, 11]: 30 min
- AUC [1, 12]: 5860 ng·h/mL
- Tmax [1, 12]: 30 min
- Cmax ([1]; both sexes, dog, blood, 1.3 mg/kg, Beagle dogs, single oral dose 1.3 mg/kg, Mean, n = 2): 1940 ng/mL
- Cmax ([1]; both sexes, dog, in vivo, 0.3 mg/kg, Beagle dogs, multiple oral doses (3 doses/week), 0.3 mpk, mean n = 2): 2460 ng/mL
- Cmax ([1]; both sexes, dog, in vivo, 0.3 mg/kg, Beagle dogs, single oral dose, 0.3 mpk, mean n = 2): 309 ng/mL
- Cmax ([1]; both sexes, dog, in vivo, 3 mg/kg, Beagle dogs, multiple oral doses (3 doses/week), 3 mpk, mean n = 2): 4530 ng/mL
- Cmax ([1]; both sexes, dog, in vivo, 3 mg/kg, Beagle dogs, single oral dose, 3 mpk, mean n = 2): 2730 ng/mL
- 24 hour drug concentrations ([1]; dog, daily and TIW regimens): minimal
- Cmax ([1]; female, dog, blood, 1.3 mg/kg, Beagle dog, single oral dose 1.3 mg/kg, Subject 0008_F): 2070 ng/mL
- Cmax ([1]; male, dog, blood, 1.3 mg/kg, Beagle dog, single oral dose 1.3 mg/kg, Subject 0007_M): 1800 ng/mL
- % TGI [2]: 37.58 (<0.05 to %
- % TGI [3]: 53.33 (<0.0001) %
- % TGI [4]: 28.47 (NS) %
- % TGI [5]: 62.00 (<0.0001) %
